Entries after “also recorded” stand apart in the source; their conditions may differ. Where no end group is shown, it is not given here. The star is where a group is joined. Biotin = O=C1N[C@H]2[C@H](CS[C@H]2CCCCC(=O)*)N1
Assays:
CD45 (Homo sapiens) = CD45 (Homo sapiens) (UniProt P08575); settings: cited from earlier work
plant lectins = settings: ref [29]; cited from earlier work
From the text: NKG2D is a homodimeric, type II receptor whose recognized ligands are cell-surface proteins MICA and MICB, which are major histocompatibility complex class I homologs. Other polypeptide ligands include ULBP, Rae-1 and H60 [26]. Extensive studies of binding of MICA and MICB [24–26] have shown that each homodimer binds a single ligand at the interface of the subunits. Each subunit of NKG2D also contains a lectin domain that binds glycans with specificity for Neu5Ac(α2,3)Gal. […] Binding was inhibited by fet ...

NKG2D [1] = target: T1, NKG2D (Homo sapiens, UniProt P26718); assay: inhibition of binding of svH1C to NKG2D; settings: added with 2 μM svH1C; PBS/0.05% Tween-20; average of single values from three separate assays; fetuin 5, 10, 30 μM; sialyllactose 12, 20, 40 μM
T1 construct: the extracellular lectin-type domain was fused at the N-terminus with a human IgG1 Fc domain; purchased R&D Systems, Inc., Minneapolis, MN
T1 sequence (P26718 73-216 limits assumed): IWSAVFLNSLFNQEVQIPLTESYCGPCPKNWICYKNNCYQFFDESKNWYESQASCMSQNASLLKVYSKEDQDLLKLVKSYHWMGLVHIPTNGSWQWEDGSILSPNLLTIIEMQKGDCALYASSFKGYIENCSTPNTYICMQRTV
Experimental: (§1) Isothermal microcalorimetry was performed by TA Instruments Professional Services (New Castle, DE) by titrating 10 μM NKG2D (monomer concentration) (R&D Systems, Inc., Minneapolis, MN) with 100 μM svH1C in 50 mM Tris-HCl, pH 7.5, 150 mM NaCl, 0.1 mM EDTA. Recombinant human receptors were obtained from R&D Systems as chimeric proteins. NKG2D is a type II transmembrane protein and the extracellular lectin-type domain was fused at the N-terminus with a human IgG1 Fc domain. Recombinant siglecs contained a C-terminal IgG1 Fc domain or a His6–10 tag. The lyophilized proteins were reconstituted in phosphate-buffered saline, pH 7.2 (PBS), to 100 μg/mL. The Fc-chimeric proteins were bound to protein A/G-coated wells of microtiter plates (Pierce Biotechnology). His-tagged proteins were bound in Nickel-coated plates (Pierce Biotechnology). Sufficient proteins were added to wells to saturate the binding capacity of the wells. After a wash to remove unbound receptor, wells were blocked with 1% gelatin in wash buffer. […] Absorbance was measured at 450 nm and converted to the amount of streptavidin-peroxidase bound with the specific activity of the conjugate determined under the conditions of the assay. […]
Fig 4 Binding of svH1C to NKG2D. (A) The amount of bound peptide was measured after extensive washing with PBS containing 0.05% Tween-20. […]

Siglec-2 = settings: ref Kelm et al. [68], cited from earlier work
From the text: Most siglecs are inhibitory receptors containing an ITIM [9–12] and express full activity when a ligand is bound. As documented with Siglec-2 on B cells, a functional ligand binding site is required for tyrosine phosphorylation, recruitment of the phosphatase SHP-1, and inhibition of B cell activation.

siglecs [2] = assay: solid-phase binding of biotinylated tetravalent peptides to siglecs; set-up: species or system human; settings: biotinylated peptides 2 μM
Experimental: as §1, with “buffer. Wash buffers were either 10 mM phosphate, pH 7.2; 10 mM HEPES, pH 7.4; or 50 mM Tris-HCl, pH.7.5, each in 150 mM NaCl containing 0.05% Tween-20. Biotinylated peptides were prepared as 2 μM solutions in the wash buffer and 50 μL (100 pmoles) were added to each well and incubated at room temperature for one hour. After four washes with 350 μL buffer containing 0.05% Tween-20, each assay was incubated with 50 μL of 1 μg/mL streptavidin-peroxidase (Sigma-Aldrich, St. Louis, MO).” for “buffer.”
MAA is a mixture of M. amurensis leukoagglutinin (MAL) and M. amurensis hemagglutinin (MAH), both of which along with SNA1 bind preferentially to terminal Neu5Ac-Gal- sequences on complex glycans. Binding of the peptide to several lectins specific for monosaccharides was not detected. […]

siglecs [3] = assay: inhibition of binding of svH1C to siglecs; set-up: species or system human; settings: fetuin 10 μM or 30 μM; average of single values in two assays
Experimental: as §1
Fig 3 Binding of svH1C to lectin-type receptors. […] SEM was determined for six assays from four independent experiments. […]

[4] = system: lectins that bind monosaccharides; settings: Neu5Ac, Gal, GalNAc or fucose lectins; ref [29],[30]; cited from earlier work
From the text: We initially identified several sequences of amino acids that bound to specific plant lectins by screening phage display libraries. Sequences were further refined by in silico modeling of docking of a peptide into the sugar binding site of the crystal structures of lectins. These studies predicted that several short peptide sequences, 5 to 8 amino acids in length, would have significant affinity to lectins chosen as analogs of cell-surface receptors. […] MAA is a mixture of M. amurensis leukoagglutinin (MAL) and M. amurensis hemagglutinin (MAH), both of which along with SNA1 bind preferentially to terminal Neu5Ac-Gal- sequences on complex glycans. Binding of the peptide to several lectins specific for monosaccharides was not detected. We then assayed binding of svH1C to several siglecs, which comprise a family of cell-surface receptors that are specific for Neu5Ac-Gal/GalNAc- sequ ...

[5] = target: T2, recombinant human NKG2D, Fc chimera (human, UniProt P26718 73-216); assay: ELISA; inhibition: fetuin (5, 10 or 30 μM) added along with 2 μM biotinylated svH1C to immobilised receptor; PBS with 0.05% Tween-20
T2 construct: NKG2D, human, extracellular lectin-type domain; Type II transmembrane protein; source: bought: R&D Systems; not shown: Fc (human IgG1), N-terminal, kept
T2 sequence (looked up): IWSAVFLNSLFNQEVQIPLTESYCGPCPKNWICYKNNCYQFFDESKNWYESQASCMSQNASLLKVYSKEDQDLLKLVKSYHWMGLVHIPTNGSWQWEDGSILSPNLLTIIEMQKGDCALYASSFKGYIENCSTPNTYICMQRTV

NKG2D [6] = settings: approximately; ref [24]–[26]; cited from earlier work
Experimental: NKG2D lacks a signaling motif in its cytoplasmic domain and functions as an activating receptor in association with adaptor proteins, DAP10 and DAP12 [75]. In addition to NKG2D, NK cells express other activating cytotoxicity receptors such as NKp30, NKp44 and NKp46. These receptors bind to tandemly multivalent heparan sulfate/heparin sequences with KD values of 0.3 to 2 μM [76]. Similarly to NKG2D, NKp46 also binds multivalent sialyl-Lewis^X with a KD of approximately 0.6 μM [77]. The native in vivo ligands for NKG2D are divergent proteins, MIC-A/B, ULBP, Rae-1 or H60, which bind the rec ...

Sequence of CD45 (Homo sapiens) (P08575 26-577): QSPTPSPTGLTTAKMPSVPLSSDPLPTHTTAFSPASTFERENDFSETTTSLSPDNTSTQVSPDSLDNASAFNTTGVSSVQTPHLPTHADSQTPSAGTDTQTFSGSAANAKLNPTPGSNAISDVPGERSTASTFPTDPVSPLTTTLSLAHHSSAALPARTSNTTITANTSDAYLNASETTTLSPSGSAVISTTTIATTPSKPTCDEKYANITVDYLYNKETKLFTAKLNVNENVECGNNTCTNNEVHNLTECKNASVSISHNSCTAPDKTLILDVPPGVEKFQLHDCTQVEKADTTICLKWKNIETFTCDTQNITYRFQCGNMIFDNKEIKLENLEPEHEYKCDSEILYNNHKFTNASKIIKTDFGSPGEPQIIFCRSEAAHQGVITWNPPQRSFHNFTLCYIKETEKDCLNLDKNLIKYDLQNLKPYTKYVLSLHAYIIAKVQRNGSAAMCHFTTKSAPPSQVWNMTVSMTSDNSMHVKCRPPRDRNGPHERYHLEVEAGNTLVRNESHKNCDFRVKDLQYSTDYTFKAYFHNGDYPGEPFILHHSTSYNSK

Molecule: Siglec-2 (CD22) (from UniProt P20273)
- Kd (CD45 (Homo sapiens)): 117 µM

Molecule: digestion of fetuin with neuraminidase: fetuin digested with neuraminidase
- competition with svH1C for binding to plant lectins (plant lectins): nearly eliminated its ability to inhibit binding

Molecule: sialyllactose [reference compound]
- IC50 (NKG2D [1]): ~18 µM

Molecule: CO[C@]1(C(=O)O)C[C@H](O)[C@@H](NC(C)=O)[C@H]([C@H](O)[C@H](O)CNC(=O)c2ccc(-c3ccccc3)cc2)O1 [BPC-Neu5Ac]
- IC50 (Siglec-2; after cells were treated with neuraminidase): 4 µM
- tyrosine phosphorylation and inhibitory activity of Siglec-2 (Siglec-2): reduced tyrosine phosphorylation and attenuated the receptor’s inhibitory activity

Molecule: [(VGGGSGGGS)2K]2K-ε-biotinyl-K-NH2 [peptide used as a negative control, reference compound]
- binding of biotinylated tetravalent peptides to siglecs (siglecs [2]): no binding

Molecule: fetuin: fetal bovine fetuin (purity, 88%; cat. no. 341506, Calbiochem)
- inhibition of binding of svH1C to siglecs by fetuin (siglecs [3]): inhibited; also recorded: as effective an inhibitor of binding of svH1C to NKG2D as it was of the binding of the peptide to siglecs
- competition with svH1C for binding to plant lectins (plant lectins): effectively competed

Molecule: HPSLK [sv6B]
- binding of biotinylated tetravalent peptides to siglecs (siglecs [2]): also bound to siglecs
- avidity to lectins that bind monosaccharides, relative to natural ligands [4]: several orders of magnitude greater than their natural ligands

B1: svH1C, biotin-tagged tetravalent peptide [(…)2K]2K-ε-biotinyl-K-NH2 (peptide)
chain 1: NPSHPLSGGGGS
chain 2: KKKK(Biotin)-NH2
modifications: also: tetravalent branched: four NPSHPLSGGGGS arms on tri-lysine core joined by peptide and iso-peptide bonds
- binding constant estimated from the inhibition by fetuin [5]: 1 µM
- streptavidin-peroxidase conjugate bound (average 100% value, without inhibitor) [5]: 2.4 ng

B2: fetal bovine fetuin (natural protein, UniProt P12763 19-359, looked up)
chain: IPLDPVAGYKEPACDDPDTEQAALAAVDYINKHLPRGYKHTLNQIDSVKVWPRRPTGEVYDIEIDTLETTCHVLDPTPLANCSVRQQTQHAVEGDCDIHVLKQDGQFSVLFTKCDSSPDSAEDVRKLCPDCPLLAPLNDSRVVHAVEVALATFNAESNGSYLQLVEISRAQFVPLPVSVSVEFAVAATDCIAKEVVDPTKCNLLAEKQYGFCKGSVIQKALGGEDVRVTCTLFQTQPVIPQPQPDGAEAEAPSAVPDAAGPTPSAAGPPVASVVVGPSVVAVPLPLHRAHYDLRHTFSGVASVESSSGEAFHVGKTPIVGQPSIPGGPVRLCPGRIRYFKI
modifications: three N-linked and three O-linked glycans per molecule, with termini Neu5Ac(α2,3)Gal or Neu5Ac(α2,6)Gal
notes: fetuin, fetal bovine; source: bought: Calbiochem, EMD Chemicals (purity, 88%)
- IC50 ([5]; both partners purified): ~3 µM

B3: MIC-A/B: native in vivo ligands for NKG2D; major histocompatibility complex class I homologs (protein, UniProt Q29983 24-383; Q29980 23-383, looked up)
MHC class I … 1: EPHSLRYNLTVLSWDGSVQSGFLTEVHLDGQPFLRCDRQKCRAKPQGQWAEDVLGNKTWDRETRDLTGNGKDLRMTLAHIKDQKEGLHSLQEIRVCEIHEDNSTRSSQHFYYDGELFLSQNLETKEWTMPQSSRAQTLAMNVRNFLKEDAMKTKTHYHAMHADCLQELRRYLKSGVVLRRTVPPMVNVTRSEASEGNITVTCRASGFYPWNITLSWRQDGVSLSHDTQQWGDVLPDGNGTYQTWVATRICQGEEQRFTCYMEHSGNHSTHPVPSGKVLVLQSHWQTFHVSAVAAAAIFVIIIFYVRCCKKKTSAAEGPELVSLQVLDQHPVGTSDHRDATQLGFQPLMSDLGSTGSTEGA
MHC class I … 2: AEPHSLRYNLMVLSQDGSVQSGFLAEGHLDGQPFLRYDRQKRRAKPQGQWAENVLGAKTWDTETEDLTENGQDLRRTLTHIKDQKGGLHSLQEIRVCEIHEDSSTRGSRHFYYDGELFLSQNLETQESTVPQSSRAQTLAMNVTNFWKEDAMKTKTHYRAMQADCLQKLQRYLKSGVAIRRTVPPMVNVTCSEVSEGNITVTCRASSFYPRNITLTWRQDGVSLSHNTQQWGDVLPDGNGTYQTWVATRIRQGEEQRFTCYMEHSGNHGTHPVPSGKALVLQSQRTDFPYVSAAMPCFVIIIILCVPCCKKKTSAAEGPELVSLQVLDQHPVGTGDHRDAAQLGFQPLMSATGSTGSTEGT
- Kd (NKG2D [6]): ~1 µM

Reference: PMC4482410, “A Peptide Mimetic of 5-Acetylneuraminic Acid-Galactose Binds with High Avidity to Siglecs and NKG2D” (PLoS ONE, 2015)
